{
  "source": "patent US20230302022A1",
  "about": "“PREVENTING OR MITIGATING CHEMOTHERAPY INDUCED ALOPECIA USING VITAMIN D” (priority 2016, published 2023)",
  "key": {"HepG2 (liver cancer)": {"tested_on": "HepG2 (liver cancer)", "assay": "Cell growth / viability assay, HepG2", "assay_type": "cell-based", "procedure": "(§1) The drug treatment period was usually three days. At the end of the three days, the background OD of the 96-well plate was read at 280 nm, before 20 μL of the “Substrate Cell Titer 96 Aqueous One Solution Reagent” (Promega) was added to each well. The plate was returned to the 37° C. incubator, and its OD at 490 nm was read each hour until an OD of approximately 1.5 was reached. The net OD increase was calculated by subtracting the pre-substrate OD reading.\n(§2) The impact of the drug on the cells was calculated by comparing the OD at different concentrations in relation to the OD of the control wells (without the drug).\n(§3) Then these pretreated cells were utilized to set up the cell based assay."}, "HEKa cells": {"tested_on": "HEKa cells", "assay": "Real-time PCR Neuroscience Ion Channels and Transporters array, calcitriol-treated HEKa cells", "assay_type": "cell-based, human", "conditions": "0.1 μg/mL calcitriol, three independent experiments; for KCNB2 mRNA Regulation Pattern: until 24 hours", "procedure": "The PCR array analysis utilized two groups of genes—those related to Heat Shock Proteins (SABiosciences), and those related to Neuroscience Ion Channels and Transporters (SABioscience). Cell culture: Primary human epidermal keratinocytes (HEKa) were maintained in Epilife Medium (Cascade Biologics, Inc., Portland OR) along with Human Keratinocyte Growth Supplement (Cascade Biologics, Inc., Portland OR). […] D3 treatment of HEKa cells: […] Vehicle control group of cells were treated with 5 mL media containing 1 μL of ethanol. Cells were harvested 3, 6, 16, 24, 48, or 72 hours after the start of the treatment. RNA isolation: Cells were lysed for RNA isolation at different treatment times using the RNeasy Mini kit (Qiagen, Inc., Valencia CA) following the manufacturer's instructions. RNA was quantified by measuring optical density at 260 nm. First Strand Synthesis: […] Real-time PCR: Products from the first strand synthesis were diluted with water, mixed with the SYBR green master mix (SABiosciences., Frederick MD) and loaded onto PCR arrays. Real time PCR was run on the PCR Arrays (Heat Shock Protein Arrays, and Neuroscience and Ion Channel Arrays) (SABiosciences, Frederick MD) on a Biorad CFX96. Data analyses were performed using the PCR array data analysis software available on the SABiosciences website."}, "guinea pigs": {"tested_on": "guinea pigs", "assay": "Skin sensitization study in guinea pigs", "assay_type": "in vivo, guinea pig", "conditions": "5.7 μg/g", "procedure": "Induction phase. […] The induction exposure was repeated at the same skin site once a week for 2 weeks. The vehicle and positive control groups composed of 5 male and 5 female guinea pigs, each of which were exposed in the same manner as the treatment group to propylene glycol/anhydrous ethanol or hexylcinnamic aldehyde (a known mild to moderate skin-sensitizer), respectively. Skin reactions were scored and recorded at approximately 24 hours after patch removal during the induction phase. After the last induction exposure, the animals remained untreated for two weeks before the challenge exposure.\nChallenge phase. The challenge exposure was conducted two weeks after the final topical induction. The test article was topically applied to the Vehicle Control and Test Group at the concentration determined to be non-irritating in the irritation screen. The Vehicle Control Group was also challenged with the Vehicle. The Positive Control Groups received the positive control article. The challenge application sites were scored at approximately 24 and 48 hours after patch removal."}, "[1]": {"tested_on": "Long Evans and Sprague Dawley rats", "assay": "Chemotherapy-induced alopecia (CIA) in the neonatal rat, topical calcitriol formulation", "assay_type": "in vivo", "procedure": "Specifically, Long Evans and Sprague Dawley rats with pups were purchased from Harlan Laboratories, Inc. They were housed and fed according to applicable animal handling rules and regulations. Pups were allowed to acclimate for 48 hours prior to the start of experiments. […] Rats were isolated from their littermates and mother for 6-hour periods of time. Subsequently, the treated area was cleaned with soap and water and pups were returned to their litters. On day 13, rats either received etoposide (1.5 mg/kg daily for 3 days) or cyclophosphamide (CTX) (37.5 mg/kg once) or combination cyclophosphamide (35 mg/kg once) and doxorubicin (2.5 mg/kg daily for 3 days). All chemotherapies were purchased from Sigma and were given intraperitoneally (i.p.) in a total volume of 0.1 mL. Alopecia was recorded 10 days after the last dose of chemotherapy."}, "[2]": {"tested_on": "MCF-7 (breast cancer with p53 mutation)", "assay": "Cell growth / viability assay, MCF-7", "assay_type": "cell-based", "procedure": "as §1, §2, §3"}, "[3]": {"tested_on": "SkBr-3 (breast adenocarcinoma cancer, Her2 overexpressed)", "assay": "Cell growth / viability assay, SkBr-3", "assay_type": "cell-based", "procedure": "The drug treatment period was usually three days. At the end of the three days, the background OD of the 96-well plate was read at 280 nm, before 20 μL of the “Substrate Cell Titer 96 Aqueous One Solution Reagent” (Promega) was added to each well. […] The net OD increase was calculated by subtracting the pre-substrate OD reading. The impact of the drug on the cells was calculated by comparing the OD at different concentrations in relation to the OD of the control wells (without the drug). The results of the Net OD as a function of drug concentration was plotted and used to determine ED50 values."}, "[4]": {"conditions": "Long Evans rats, 0.2 μg total dose"}},
  "note": "Entries after “also recorded” stand apart in the source; their conditions may differ.",
  "data": [
    {"compound": "C=C1/C(=C\\C=C2/CCC[C@]3(C)[C@@H]([C@H](C)CCCC(C)(C)O)CC[C@@H]23)C[C@@H](O)C[C@@H]1O", "note": "[Calcitriol, (5Z,7E)-9,10-secocholesta-5,7.10(19Hriene-1 a,33.25-triol]", "values": [
      {"measurement": "effect of calcitriol on the cytotoxic effect of Doxorubicin", "setting": "HepG2 (liver cancer); Hep-G2", "value": "did not appear to appreciably alter"},
      {"measurement": "5-FU ED50 curve with vs without calcitriol", "setting": "HepG2 (liver cancer); Hep-G2, 0.1 μg/mL calcitriol", "value": "not significantly different"},
      {"measurement": "response to doxorubicin, cisplatin and erlotinib after calcitriol exposure", "setting": "HepG2 (liver cancer); Hep-G2, 0.1 μg/mL calcitriol for two passages", "value": "did not alter"},
      {"measurement": "SLC1A1 mRNA Regulation Pattern", "setting": "HEKa cells; at 16 hrs", "value": "upregulated at"},
      {"measurement": "KCNN4 mRNA Regulation Pattern", "setting": "HEKa cells; at 48 hours", "value": "upregulated at 48"},
      {"measurement": "KCNB2 mRNA Regulation Pattern", "setting": "HEKa cells", "value": "upregulated"},
      {"measurement": "KCNB2 mRNA Regulation Pattern", "setting": "HEKa cells; listed as Vitamin D3", "value": "upregulated until"},
      {"measurement": "skin sensitization", "setting": "guinea pigs", "value": "not determined to be a sensitizer"},
      {"measurement": "protection from etoposide-induced alopecia", "setting": "[1]; 0.1 μg of calcitriol topically for 6 hours, daily for 6 days", "value": "partial localized protection"},
      {"measurement": "protection from cyclophosphamide-induced alopecia", "setting": "[1]; 0.3 μg calcitriol topically", "value": "full body protection"},
      {"measurement": "protection from etoposide-induced alopecia", "setting": "[1]; 0.3 μg calcitriol topically", "value": "total body protection"},
      {"measurement": "protection from CTX-doxorubicin combination chemotherapy-induced alopecia", "setting": "[1]; [4]", "value": "protects"},
      {"measurement": "protection from CTX-induced alopecia in rats injected with MIAC51", "setting": "[1]; [4]", "value": "protects"},
      {"measurement": "protection from cyclophosphamide (CTX)-induced alopecia", "setting": "[1]; [4]", "value": "protects"},
      {"measurement": "protection from CIA in rats receiving etoposide", "setting": "[1]; Sprague Dawley rats, topical formulation, two doses", "value": "protects from chemotherapy-induced alopecia (CIA) in a dose-dependent manner"},
      {"measurement": "protection against CIA in neonatal rat", "setting": "[1]; about 0.2 μg (100 μL of 2 μg/mL topical solution)", "value": "protective"},
      {"measurement": "daily application prior to commencement of chemotherapy required to see any protective effect", "setting": "[1]; rat model", "value": "at least four days"},
      {"measurement": "protection with 5 days of application prior to chemotherapy", "setting": "[1]; rat model", "value": "moderate protection"},
      {"measurement": "effect of calcitriol on the cytotoxic effect of Doxorubicin", "setting": "[2]; MCF-7", "value": "did not appear to appreciably alter"},
      {"measurement": "response to doxorubicin, cisplatin and erlotinib after calcitriol exposure", "setting": "[2]; MCF-7, 0.1 μg/mL calcitriol for two passages", "value": "did not alter"},
      {"measurement": "effect of calcitriol on cell growth", "setting": "[3]", "value": "no significant growth promoting or growth inhibiting effects"},
      {"measurement": "effect of calcitriol on the cytotoxic effect of Doxorubicin", "setting": "[3]", "value": "does not appreciably alter; also recorded: did not appear to appreciably alter"}
    ]}
  ]
}
